Patent US20080031884A1, “COMPOSITIONS AND METHODS FOR TREATING, REDUCING, AMELIORATING, OR ALLEVIATING POSTERIOR-SEGMENT OPHTHALMIC DISEASES” (priority 2006, published 2008)
“And” between values parts separate entries of the source, which are not always exact repeats. Equal entries are not always repeated. “Also recorded” adds a separate entry of the source.

Assays:
[1] = tested on: rabbit eye (anterior chamber paracentesis); test: Rabbit paracentesis model, overall anti-inflammatory activity; format: in vivo; details: 0.1%, 0.5% and 1% topical formulations; preliminary conclusions; listed as BOL-303242-X
Excerpt: Inflammatory processes are multidimensional in origin, and are characterized by complex cellular and molecular events involving numerous components all of which have not been identified. Prostaglandins are among these mediators and play an important role in certain forms of ocular inflammation. Paracentesis of the anterior chamber in the rabbit eye induces inflammatory reaction due to the disruption of the blood-aqueous barrier (“BAB”), which is mediated, at least in part, by prostaglandin E2 [References 1-3 below]. Intraocular or topical administration of PGE2 disrupts the BAB. [Reference 4, below] The treatment schedule adopted in this study was similar to the clinical NSAIDs (Ocufen) treatment schedule used by surgeons for patients before cataract surgery.
Each rabbit was placed in a restraint device and tagged with the alphanumeric code. The formulations were instilled (50 μl) into the conjunctival sac of both eyes 180, 120, 90 and 30 min before the first paracentesis; then 15, 30, 90 min after the first paracentesis. To perform the first paracentesis the animals were anaesthetized by intraveneous injection of 5 mg/kg Zoletil® (Virbac; 2.5 mg/kg tiletamine HCl and 2.5 mg/kg zolazepam HCl) and one drop of local anesthetic (Novesina®, Novartis) was administered to the eye. […]

[2] = Side effects of corticosteroids (very preliminary data, not shown)
[3] = tested on: leukocytes (PMN) in aqueous humor; test: Leukocytes (PMN) measurement in aqueous humor, rabbit paracentesis model; format: in vivo; details: aqueous humor at the second paracentesis; for PMN (number/μl): raw data per sample; for PMN numbers, Mean (number/μl): group mean
Procedure: Each rabbit was placed in a restraint device and tagged with the alphanumeric code. The formulations were instilled (50 μl) into the conjunctival sac of both eyes 180, 120, 90 and 30 min before the first paracentesis; then 15, 30, 90 min after the first paracentesis. To perform the first paracentesis the animals were anaesthetized by intraveneous injection of 5 mg/kg Zoletil® (Virbac; 2.5 mg/kg tiletamine HCl and 2.5 mg/kg zolazepam HCl) and one drop of local anesthetic (Novesina®, Novartis) was administered to the eye. Anterior chamber paracentesis was performed with a 26 G needle attached to a tuberculin syringe; the needle was introduced into the anterior chamber through the cornea, taking care not to damage the tissues. Two hours after the first paracentesis, the animals were sacrificed with 0.4 ml Tanax® (Intervet International B.V.) and the second paracentesis was performed. About 100 μl of aqueous humor were removed at the second paracentesis. Aqueous humor was immediately split in four aliquots and stored at −80° C. until analysis. Then both eyes were enucleated and the iris-ciliary body was carefully excised, placed in polypropylene tubes, and stored at −80° C. until analysis.
For the determination of the number of leukocytes we used a haemocytometer (Improved Neubauer Chamber; Brigth-line, Hausser Scientific) and a Polyvar 2 microscope (Reichert-Jung).

In the case of Cc1ccc2c(NCC(O)(CC(C)(C)c3cc(F)cc4c3OCC4)C(F)(F)F)cccc2n1 (stereo not drawn) [BOL], the “Anti-inflammatory activity in the rabbit paracentesis model (conclusion)” value [1] is reported as “active; also recorded: as effective an anti-inflammatory drug as some of the commonly accepted prior-art steroids or NSAID”, the “Side effects of corticosteroids” value [2] is reported as “does not have some of the side effects of corticosteroids” and the “PMN (number/μl)” value ([3]; 1% topical formulation) is reported as 30 number/μl and 20 number/μl and 40 number/μl.

With C[C@@H]1C[C@H]2[C@@H]3CCC4=CC(=O)C=C[C@]4(C)[C@@]3(F)[C@@H](O)C[C@]2(C)[C@@]1(O)C(=O)CO [Dex, dexamethasone] the “PMN numbers, Mean (number/μl)” value ([3]; 0.1% topical formulation) was 30.000 number/μl.

For CC(C(=O)O)c1ccc(-c2ccccc2)c(F)c1 (stereo not drawn) [F, flurbiprofen], the “PMN numbers, Mean (number/μl)” value ([3]; 0.03% topical formulation) was 30.000 number/μl.

In the case of CCOC(=O)O[C@]1(C(=O)OCCl)CC[C@H]2[C@@H]3CCC4=CC(=O)C=C[C@]4(C)[C@H]3[C@@H](O)C[C@@]21C [LE, loteprednol etabonate], the “PMN (number/μl)” value ([3]; 0.5% topical formulation) is reported as 40 number/μl and 20 number/μl and 30 number/μl.
